In brackets after ≈: the same amount, converted by molar mass. Bridges are numbered along the chain shown (N, C = ends). Where no end group is shown, it is not given here. [ ]: non-standard residue; d: D form. GABA = NCCCC(=O)O
Tests used:
Raw 264.7 cells = assay: Median lethal dose (IC50) against Raw 264.7 cells at 24 h; type: cell-based
Excerpt: (§1) The targeting ability of nRGD was studied through in vitro and in vivo experiments by the inventors.

4T1 tumours [1] = assay: Pharmacodynamics of doxorubicin and its liposomes in 4T1 tumour model; type: in vivo, Balb/c mice; conditions: day 20
Protocol: (§3) Female Balb/c mice were inoculated with 5×10^5 4 T1 cells and randomly divided into 7 groups: saline group (NS), Dox group, PEG-Lipo-Dox group, iRGD-Lipo-Dox group, nRGD-Lipo-Dox group, Dox and nRGD coadministration group (Dox+nRGD), PEGylated liposome and nRGD coadministration group (PEG-Lipo-Dox+nRGD). The mice were injected with 5 mg/kg Dox equivalents of drugs or various formulations on day 8 and day 12. The single dose of the coadministration group included two shoots; one shoot was an equivalent drug or formulation of 5 mg/kg Dox, while the other shoot was 4.8 mg/kg nRGD. The volume and body weight of the mice were measured every two days. Some mice were sacrificed for mechanism and toxicity study on day 20. The average tumour growth inhibition (TGI) was calculated after tumour weighing: TGI=(1−(mean tumour weight of treatment group/(average tumour weight of control group))×100%. The antitumour effect and mechanism were studied by HE, immunohistochemistry, RT-PCR, immunofluorescence and ELISA. Plasma samples were collected for ELISA detection. Tissue samples were evaluated for toxicity by HE staining. The remaining mice were studied for survival time.

HUVEC = assay: Median lethal dose (IC50) against HUVEC at 24 h; type: cell-based; conditions: n = 3
Excerpt: as §1

[2] = test system: tumour vessels and tumour-associated macrophages (TAMs); assay: In vivo targeting and tumour microenvironment study in 4T1 tumours (immunofluorescence, immunohistochemistry, RT-PCR, ELISA); parameters: species or system Balb/c mice
Protocol: as §3

4T1 cells = assay: Median lethal dose (IC50) against 4T1 cells at 24 h; type: cell-based
Excerpt: as §1

4T1 tumours [3] = assay: Evaluation of peptide-bond linked RGD-AAN peptides with doxorubicin, 4T1 model; type: in vivo, Balb/c mice; conditions: doxorubicin 5 mg/kg with peptide
Protocol: (§2) The dose of doxorubicin was 5 mg/kg for all groups. Two groups were administrated with above-mentioned peptides, respectively.

4T1 tumours [4] = assay: Evaluation of 4Abu linked RGD-AAN peptides with doxorubicin, 4T1 model; type: in vivo, Balb/c mice; conditions: doxorubicin 5 mg/kg with peptide
Protocol: as §2

4T1 tumours [5] = assay: Pharmacodynamics of paclitaxel and its albumin nanoparticles with nRGD, 4T1 tumour model; type: in vivo
Protocol: The mice were injected with 10 mg/kg PTX equivalents of drugs or various formulations on day 8, day 12 and day 16.

4T1 tumours [6] = assay: Pharmacological effects of docetaxel and its micells with nRGD, 4T1 tumour model; type: in vivo
Protocol: Female Balb/c mice were inoculated with 5×10^5 4T1 cells and randomly divided into 5 groups: normal saline group (N. S), TXT group, docetaxel micells group (TXT-micells), docetaxel and nRGD coadministration group (TXT+nRGD), and docetaxel micells and nRGD coadministration group (TXT-micells+nRGD). The mice were injected with 15 mg/kg TXT equivalents of drugs or various formulations on day 8, day 10 and day 12.

4T1 tumours [7] = assay: Pharmacological effects of lycobetaine and its nanostructured lipid carriers with nRGD, 4T1 tumour model; type: in vivo
Protocol: Normal saline group (N. S), IBT group, lycobetaine nanostructured lipid carriers group (IBT-NLC), lycobetaine and nRGD coadministration group (IBT+nRGD), and lycobetaine nanostructured lipid carriers and nRGD coadministration group (IBT-NLC+nRGD). The mice were injected with 12 mg/kg IBT equivalents of drugs or various formulations on day 8, day 9 and day 10.

[8] = mouse, in vivo
4T1 tumours [9] = assay: Screening of the working concentration of nRGD with doxorubicin, 4T1 model; type: in vivo, Balb/c mice; conditions: doxorubicin 5 mg/kg; nRGD 1, 2, 4, 8, 10 mg/kg
Protocol: The dose of doxorubicin was 5 mg/kg, while the nRGD concentration was 1, 2, 4, 8, 10 mg/kg, respectively.

4T1 tumours [10] = assay: Screening of the administration manner of nRGD with doxorubicin, 4T1 model; type: in vivo, Balb/c mice; conditions: nRGD in combination with, prior to or after doxorubicin
Protocol: Female Balb/c mice were inoculated with 5×10^5 4 T1 cells and randomly divided into 3 groups. nRGD was administered in combination with doxorubicin, nRGD was administered prior to doxorubicin or after doxorubicin.

[11] = test system: CoCl2-treated 4T1 and M2 type macrophages, HUVEC, untreated 4T1 cells; assay: Cell uptake experiments; type: cell-based; conditions: HUVEC with low legumain expression and untreated 4T1 cells
Excerpt: as §1

glioma = assay: Glioma model survival; type: in vivo, mice; conditions: lycobetaine and octreotide liposomes, peptide as a mixture or on the liposome surface
Excerpt: Mice having glioma were randomly divided into 9 groups, 20 mice each: normal saline group (N.S), teniposide group, free lycobetaine and octreotide group (free IBT & OCT), lycobetaine and octreotide PEGylated liposomes group (PEG-Liposome), liposomes and iRGD coadministration group (PEG-Liposome+iRGD), liposomes and nRGD coadministration group (PEG-Liposome+nRGD), iRGD modified lycobetaine and octreotide PEGylated liposomes (iRGD-Liposome), nRGD modified lycobetaine and octreotide PEGylated liposomes (nRGD-Liposome), liposomes and nRGD coadministration group (blank). The mice were injected with 10 mg/kg IBT and […] OCT equivalents of drugs or various formulations on day 5, day 7, day 9, day 11 and day 12. As positive control group, mice were injected with 10 mg/kg teniposide on day 5, day 7, day 9, day 11 and day 12. […] The survival of the mice was recorded daily and the survival curve was plotted.

legumain = target: T1, legumain (UniProt O89017 18-325, limits assumed); assay: cell-based or functional assay
T1 sequence (looked up): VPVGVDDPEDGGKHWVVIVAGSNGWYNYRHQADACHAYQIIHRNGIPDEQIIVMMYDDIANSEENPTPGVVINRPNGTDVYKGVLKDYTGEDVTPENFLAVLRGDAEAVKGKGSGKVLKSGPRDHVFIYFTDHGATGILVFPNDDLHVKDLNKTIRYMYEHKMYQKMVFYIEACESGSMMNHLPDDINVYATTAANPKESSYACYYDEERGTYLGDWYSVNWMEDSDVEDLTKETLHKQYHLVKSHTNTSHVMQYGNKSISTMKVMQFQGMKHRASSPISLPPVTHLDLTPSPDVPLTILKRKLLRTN

Molecule: COc1cccc2c1C(=O)c1c(O)c3c(c(O)c1C2=O)C[C@@](O)(C(=O)CO)C[C@@H]3O[C@H]1C[C@H](N)[C@H](O)[C@H](C)O1 [Dox, doxorubicin]
- IC50 Dox, Raw264.7 IL-4 (Raw 264.7 cells; n = 3, IL-4 stimulated): 0.36 ± 0.07 mg/L (≈ 0.662 µM)
- IC50 Dox, Raw264.7 LPS (Raw 264.7 cells; n = 3, LPS stimulated): 0.81 ± 0.22 mg/L (≈ 1.49 µM)
- IC50 Dox, Raw264.7 Control (Raw 264.7 cells; n = 3, untreated cells): 0.41 ± 0.08 mg/L (≈ 0.754 µM)
- tumour weight (4T1 tumours [1]; 5 mg/kg Dox equivalents on day 8 and day 12, coadministration with 4.8 mg/kg nRGD): 1592.0 ± 98.0 mg
- tumour growth inhibition rate (TGI) (4T1 tumours [1]; from tumour weight versus control group): 26.3%
- IC50 Dox, HUVEC (HUVEC): 18.12 ± 6.13 mg/L (≈ 33.3 µM)
- number of regulatory T cells and MDSCs at the tumour sites ([2]; mouse, in vivo): increased
- IC50 Dox, 4T1 CoCl2 (4T1 cells; n = 3, CoCl2 stimulated): 16.54 ± 2.57 mg/L (≈ 30.4 µM)
- IC50 Dox, 4T1 control (4T1 cells; n = 3, untreated cells): 26.56 ± 1.96 mg/L (≈ 48.9 µM)

Molecule: c(RGDfK)AAN (cyclo(RGD[dF]KAAN); also: attachment point of AAN on cyclic RGDfK not given here)
- efficacy of doxorubicin (4T1 tumours [3]): can improve the efficacy of doxorubicin

Molecule: CRGDNAA (not fully specified (residue 4))
- efficacy of doxorubicin (4T1 tumours [3]): can improve the efficacy of doxorubicin

Molecule: c(RGDfK)-4Abu-AAN (cyclo(RGD[dF]K[GABA]AAN); not fully specified)
- efficacy of doxorubicin (4T1 tumours [4]): can improve the efficacy of doxorubicin

Molecule: CRGD-4Abu-NAA (CRGD[GABA]NAA)
- efficacy of doxorubicin (4T1 tumours [4]): can improve the efficacy of doxorubicin

Molecule: CCRGDK(NAA)GPDC (CCRGDKGPDC) [nRGD]
- anti-tumour efficacy (4T1 tumours [5]; 10 mg/kg PTX equivalents day 8, 12, 16 with 4.8 mg/kg nRGD): increased the anti-tumour efficacy of PTX and PTX-BSA
- body weight and toxicity (4T1 tumours [5]; mouse, in vivo): did not reduce the body weight of the mice or increase the toxicity
- anti-tumour efficacy (4T1 tumours [6]; 15 mg/kg TXT equivalents day 8, 10, 12 with 4.8 mg/kg nRGD): increased the anti-tumour efficacy of TXT and TXT-micells
- body weight and toxicity (4T1 tumours [6]; mouse, in vivo): did not reduce the body weight of the mice or increase the toxicity
- anti-tumour efficacy (4T1 tumours [7]; 12 mg/kg IBT equivalents day 8, 9, 10 with 4.8 mg/kg nRGD): increased the anti-tumour efficacy of PTX and PTX-BSA
- body weight and toxicity (4T1 tumours [7]; mouse, in vivo): did not reduce the body weight of the mice or increase the toxicity
- weight of mice [8]: did not reduce the weight of mice
- Dox antitumour efficacy versus nRGD concentration (4T1 tumours [9]): positively correlated with Dox antitumour efficacy
- accumulation of Dox in the tumour site ([2]; tumour sections): increased the accumulation of Dox in the tumour site
- anti-tumour effects of different manners of administration (4T1 tumours [10]): no significant differences
- cell uptake [11]: significantly reduced compared to iRGD
- life period (glioma): longer life period than the iRGD group

B1: nRGD polypeptide CCRGDK(NAA)GPDC, coupled to the surface of doxorubicin liposomes (nRGD-Lipo-Dox) (peptide)
peptide: CCRGDKGPDC
modifications: disulfide 2-10; not fully specified (residue 6); printed as CCRGDK(NAA)GPDC; also: coupled to Mal-PEG2000-DSPE liposome via cysteine
- Median lethal dose (IC50) of Dox, 4T1 cells stimulated with CoCl2, 24 h (legumain): 37.9 mg/L
- Median lethal dose (IC50) of Dox, Raw264.7 cells stimulated with IL-4, 24 h (legumain): 23.5 mg/L

— patent US10428114B2, “Type polypeptide targeting tumours” (SICHUAN UNIVERSITY, priority 2015, dated 2019)
